Biological target: VHL (Homo sapiens, UniProt P40337)
Assay: Fluorescence polarization competition assay (HIF-1α peptide FP displacement)

Row | Structure (SMILES) | IC50 (IC50 (μM) 10% DMSO, 10% DMSO) | IC50 (μM) 1% DMSO (1% DMSO) | IC50 (μM) 10% DMSO (10% DMSO) | IC50 (IC50 (μM) 1% DMSO, 1% DMSO)
1 | CC(=O)Nc1ccc(Br)cc1C(=O)N1C[C@H](O)C[C@H]1C(=O)NCc1ccc(Cl)cc1 [VL083] | > 1000 µM | – | – | –
2 | O=C(NCc1ccc(Cl)cc1)[C@@H]1C[C@@H](O)CN1C(=O)c1ccc([N+](=O)[O-])c(O)c1 [VL084] | 460 µM | – | – | –
3 | Cc1cc(CC(=O)N2C[C@H](O)C[C@H]2C(=O)NCc2ccc(Cl)cc2Cl)on1 [VL085] | 27.1 µM | – | – | –
4 | Cc1cc(CC(=O)N2C[C@H](O)C[C@H]2C(=O)NCc2cccc3ccccc23)on1 [VL086] | 168 µM | – | – | –
5 | Cc1cc(CC(=O)N2C[C@H](O)C[C@H]2C(=O)NCc2ccc(S(N)(=O)=O)cc2)on1 [VL087] | 103 µM | – | – | –
6 | Cc1cc(CC(=O)N2C[C@H](O)C[C@H]2C(=O)NCc2ccc(C#N)cc2)on1 [VL088] | 18.2 µM | – | – | –
7 | Cc1cc(CC(=O)N2C[C@H](O)C[C@H]2C(=O)NCc2ccc(C(=O)C(C)C)cc2)on1 [VL089] | 40.8 µM | – | – | –
8 | Cc1cc(CC(=O)N2C[C@H](O)C[C@H]2C(=O)NCc2ccc(C(=O)CC(C)C)cc2)on1 [VL090] | 45.2 µM | – | – | –
9 | Cc1cc(CC(=O)N2C[C@H](O)C[C@H]2C(=O)NCc2ccc(C(=O)OCC3CC3)cc2)on1 [VL091] | 23 µM | – | – | –
10 | CON(C)C(=O)c1ccc(CNC(=O)[C@@H]2C[C@@H](O)CN2C(=O)Cc2cc(C)no2)cc1 [VL093] | 510 µM | – | – | –
11 | Cc1cc(CC(=O)N2C[C@H](O)C[C@H]2C(=O)NCc2cccc3cccnc23)on1 [VL094] | 540 µM | – | – | –
12 | O=C(NCc1ccc(Cl)cc1)[C@@H]1C[C@@H](O)CN1C(=O)c1ccncc1 [VL096] | 32.5 µM | – | – | –
13 | O=C(NCc1ccc(Cl)cc1)[C@@H]1C[C@@H](O)CN1C(=O)c1cccnc1 [VL097] | 49.4 µM | – | – | –
14 | O=C(NCc1ccc(Cl)cc1)[C@@H]1C[C@@H](O)CN1C(=O)c1ccccn1 [VL098] | 244 µM | – | – | –
15 | O=C(NCc1ccc(Cl)cc1)[C@@H]1C[C@@H](O)CN1C(=O)c1ccnc(Cl)c1 [VL099] | 39.6 µM | – | – | –
16 | O=C(NCc1ccc(Cl)cc1)[C@@H]1C[C@@H](O)CN1C(=O)c1cncc(Br)c1 [VL100] | 63.6 µM | – | – | –
17 | Cc1nc(C(=O)N2C[C@H](O)C[C@H]2C(=O)NCc2ccc(Cl)cc2)co1 [VL101] | 940 µM | – | – | –
18 | Cc1n[nH]cc1C(=O)N1C[C@H](O)C[C@H]1C(=O)NCc1ccc(Cl)cc1 [VL102] | 64.5 µM | – | – | –
19 | O=C(NCc1ccc(Cl)cc1)[C@@H]1C[C@@H](O)CN1C(=O)CCN1CCCCC1 [VL104] | > 1000 µM | – | – | –
20 | O=C(NCc1ccc(Cl)cc1)[C@@H]1C[C@@H](O)CN1C(=O)Cc1cccnc1 [VL105] | > 1000 µM | – | – | –
21 | Cc1nc(S)sc1CC(=O)N1C[C@H](O)C[C@H]1C(=O)NCc1ccc(Cl)cc1 [VL106] | > 1000 µM | – | – | –
22 | O=C(NCc1ccc(Cl)cc1)[C@@H]1C[C@@H](O)CN1C(=O)CN1C(=O)CSC1=S [VL108] | 347 µM | – | – | –
23 | Cc1cc(CC(=O)N2C[C@H](O)C[C@H]2C(=O)NCc2c[nH]c3ccccc23)on1 [VL109] | 349 µM | – | – | –
24 | Cc1cc(CC(=O)N2C[C@H](O)C[C@H]2C(=O)NCc2ccc(N3CCCCC3)cc2)on1 [VL110] | 138 µM | – | – | –

Row | Structure (SMILES) | IC50 (IC50 (μM) 10% DMSO, 10% DMSO) | IC50 (μM) 1% DMSO (1% DMSO) | IC50 (μM) 10% DMSO (10% DMSO) | IC50 (IC50 (μM) 1% DMSO, 1% DMSO)
25 | Cc1cc(CC(=O)N2C[C@H](O)C[C@H]2C(=O)NCc2ccc(-c3ncco3)cc2)on1 [VL112] | 11.3 µM | – | – | –
26 | Cc1cc(CC(=O)N2C[C@H](F)C[C@H]2C(=O)NCc2ccc(-c3cnco3)cc2)on1 [VL113] | – | Inactive | Inactive | –
27 | CC(=O)O[C@@H]1C[C@@H](C(=O)NCc2ccc(-c3cnco3)cc2)N(C(=O)Cc2cc(C)no2)C1 [VL114] | – | Inactive | Inactive | –
28 | Cc1cc(CC(=O)N2C[C@H](O)C[C@H]2C(=O)NCc2cccc(-c3scnc3C)c2)on1 [VL115] | 17 µM | – | – | 19 µM
29 | Cc1cc(CC(=O)N2C[C@H](O)C[C@H]2C(=O)NCc2ccc(-c3ocnc3C)cc2)on1 [VL117] | 5 µM | – | – | 13 µM
30 | Cc1cc(CC(=O)N2C[C@H](O)C[C@H]2C(=O)NCc2cccc(-c3cccn3C)c2)on1 [VL118] | 16.4 µM | – | – | 31 µM
31 | Cc1cc(CC(=O)N2C[C@H](O)C[C@H]2C(=O)NCc2ccc(-c3cccn3C)cc2)on1 [VL119] | 17.8 µM | – | – | 33 µM
32 | O=C(NCc1ccc(Cl)cc1)[C@@H]1C[C@@H](O)CN1C(=O)Cc1c[nH]cn1 [VL120] | > 1000 µM | – | – | > 1000 µM
33 | O=C(NCc1ccc(Cl)cc1)[C@@H]1C[C@@H](O)CN1C(=O)c1ccccc1-c1cnco1 [VL121] | > 1000 µM | – | – | > 1000 µM
34 | O=C(NCc1ccc(Cl)cc1)[C@@H]1C[C@@H](O)CN1C(=O)c1cccc(-c2cnco2)c1 [VL122] | 102 µM | – | – | 220 µM
35 | O=C(NCc1ccc(Cl)cc1)[C@@H]1C[C@@H](O)CN1C(=O)c1cccc(-c2ncc[nH]2)c1 [VL123] | 560 µM | – | – | 404 µM
36 | O=C(NCc1ccc(Cl)cc1)[C@@H]1C[C@@H](O)CN1C(=O)c1cccc2[nH]ccc12 [VL124] | 990 µM | – | – | 670 µM
37 | O=C(NCc1ccc(Cl)cc1)[C@@H]1C[C@@H](O)CN1C(=O)c1cccc2[nH]cnc12 [VL125] | 790 µM | – | – | 568 µM
38 | O=C(NCc1ccc(Cl)cc1)[C@@H]1C[C@@H](O)CN1C(=O)c1ccc2[nH]ncc2c1 [VL126] | 88.1 µM | – | – | 82 µM
39 | O=C(NCc1ccc(Cl)cc1)[C@@H]1C[C@@H](O)CN1C(=O)c1ccc2cn[nH]c2c1 [VL127] | 47.7 µM | – | – | 73 µM
40 | O=C(NCc1ccc(Cl)cc1)[C@@H]1C[C@@H](O)CN1C(=O)c1cccc2cnccc12 [VL128] | 57.9 µM | – | – | 224 µM
41 | O=C(NCc1ccc(Cl)cc1)[C@@H]1C[C@@H](O)CN1C(=O)c1cccc2cccnc12 [VL129] | 760 µM | – | – | 493 µM
42 | O=C(NCc1ccc(Cl)cc1)[C@@H]1C[C@@H](O)CN1S(=O)(=O)c1cccc2cccnc12 [VL130] | > 1000 µM | – | – | > 1000 µM
43 | Cc1cc(CC(=O)N2C[C@H](O)C[C@H]2C(=O)NCc2ccc(-c3ncon3)cc2)on1 [VL131] | 8 µM | – | – | 19 µM
44 | COc1ccc(Cn2cncc2-c2ccc(CNC(=O)[C@@H]3C[C@@H](O)CN3C(=O)Cc3cc(C)no3)cc2)cc1 [VL132] | 77.7 µM | – | – | 85 µM
45 | Cc1cc(CC(=O)N2C[C@H](O)C[C@H]2C(=O)NCc2ccc(-c3cc[nH]c3)cc2)on1 [VL133, (2S,4R)—N-(4-(1H-pyrrol-3-yl)benzyl)-4-hydroxy-1-(2-(3-methylisoxazol-5-yl)acetyl)pyrrolidine-2-carboxamide] | 2.2 µM | – | – | 7.5 µM
46 | Cc1cc(CC(=O)N2C[C@H](O)C[C@H]2C(=O)NCc2cccc(-c3cc[nH]c3)c2)on1 [VL134] | 48.1 µM | – | – | 54 µM
47 | CC(C)[Si](c1cn(CC(=O)N2C[C@H](O)C[C@H]2C(=O)NCc2ccc(-c3ccccc3)cc2)nn1)(C(C)C)C(C)C [VL135] | – | – | Inactive | > 1000 µM
48 | COC(=O)Cc1cn(CC(=O)N2C[C@H](O)C[C@H]2C(=O)NCc2ccc(-c3ccccc3)cc2)nn1 [VL136] | 28.2 µM | – | – | 540 µM

Row | Structure (SMILES) | IC50 (IC50 (μM) 10% DMSO, 10% DMSO) | IC50 (μM) 1% DMSO (1% DMSO) | IC50 (μM) 10% DMSO (10% DMSO) | IC50 (IC50 (μM) 1% DMSO, 1% DMSO)
49 | COCc1cn(CC(=O)N2C[C@H](O)C[C@H]2C(=O)NCc2ccc(-c3ccccc3)cc2)nn1 [VL137] | 35.6 µM | – | – | 128 µM
50 | Cc1cc(CC(=O)N2C[C@H](O)C[C@H]2C(=O)NCc2ccc(-c3c(C)noc3C)cc2)on1 [VL138] | 52.2 µM | – | – | 70 µM
51 | Cc1cc(CC(=O)N2C[C@H](O)C[C@H]2C(=O)NCc2ccc(-c3cn[nH]c3)cc2)on1 [VL139] | 24.7 µM | – | – | 44 µM
52 | Cc1cc(CC(=O)N2C[C@H](O)C[C@H]2C(=O)NCc2ccc(-c3c[nH]nn3)cc2)on1 [VL140] | 10.3 µM | – | – | 17 µM
53 | COCc1cn(CC(=O)N2C[C@H](O)C[C@H]2C(=O)NCc2ccc(Cl)cc2)nn1 [VL141] | 192 µM | – | – | 220 µM
54 | Cc1cc(CC(=O)N2C[C@H](O)C[C@H]2C(=O)OCc2ccc(-c3ccccc3)cc2)on1 [VL142] | 780 µM | – | – | > 1000 µM
55 | O=C(NCc1ccc(-c2ccccc2)cc1)[C@@H]1C[C@@H](O)CN1Cc1ccccc1Cl [VL143] | > 1000 µM | – | – | > 1000 µM
56 | Cc1cc(CC(=O)N2C[C@H](O)C[C@H]2C(=O)OCc2ccc(Cl)cc2)on1 [VL144] | > 1000 µM | – | – | > 1000 µM
57 | Cc1cc(CCN2C[C@H](O)C[C@H]2C(=O)NCc2ccc(-c3ccccc3)cc2)on1 [VL145] | > 1000 µM | – | – | > 1000 µM
58 | Cc1cc(CC(=O)N2C[C@H](O)C[C@H]2C(=O)NCc2ccc(C(=O)O)cc2)on1 [VL146] | 129 µM | – | – | 196 µM
59 | Cc1cc(CC(=O)N2C[C@H](O)C[C@H]2C(=O)N(C)Cc2ccc(Cl)cc2)on1 [VL147] | > 1000 µM | – | – | > 1000 µM
60 | CCOC(=O)Cn1cc(-c2cccc(C(=O)N3C[C@H](O)C[C@H]3C(=O)NCc3ccc(Cl)cc3)c2)nn1 [VL148] | 23.8 µM | – | – | 113 µM
61 | Cc1cc(CC(=O)N2C[C@H](O)C[C@H]2C(=O)NCc2ccc(-c3ccncc3)cc2)on1 [VL150] | 16 µM | – | – | 41 µM
62 | Cc1cc(CC(=O)N2C[C@H](O)C[C@H]2C(=O)NCc2ccc(-c3ccc(F)nc3)cc2)on1 [VL151] | 11 µM | – | – | 33 µM
63 | Cc1cc(CC(=O)N2C[C@H](O)C[C@H]2C(=O)NCc2ccc(-c3c(C)n[nH]c3C)cc2)on1 [VL152] | 22.8 µM | – | – | 32 µM
64 | COC(=O)Cc1cn(-c2ccccc2C(=O)N2C[C@H](O)C[C@H]2C(=O)NCc2ccc(Cl)cc2)nn1 [VL153] | 978 µM | – | – | –
65 | Cc1cc(CC(=O)N2C[C@H](O)C[C@H]2C(=O)NCc2ccc(-c3cscn3)cc2)on1 [VL154] | 118 µM | – | – | 77 µM
66 | Cc1cc(CC(=O)N2C[C@H](O)C[C@H]2C(=O)NCc2ccc(-c3cncs3)cc2)on1 [VL155] | 17.4 µM | – | – | 14 µM
67 | O=C(NCc1ccc(Cl)cc1)[C@@H]1C[C@@H](O)CN1C(=O)Cn1ccnc1 [VL156] | > 1000 µM | – | – | > 1000 µM
68 | Cn1cc(CC(=O)N2C[C@H](O)C[C@H]2C(=O)NCc2ccc(Cl)cc2)cn1 [VL157] | 372 µM | – | – | 360 µM
69 | Cc1cc(CC(=O)N2C[C@H](O)C[C@H]2C(=O)NCc2ccc(-c3cnc[nH]3)cc2)on1 [VL158] | 266 µM | – | – | 180 µM
70 | Cc1cc(CC(=O)N2C[C@H](O)C[C@H]2C(=O)NCc2ccc(-c3cccnc3)cc2)on1 [VL159] | 66.9 µM | – | – | 54 µM

— US20190127359A1, “Compounds & Methods for the Enhanced Degradation of Targeted Proteins & Other Polypeptides by an E3 Ubiquitin Ligase” (YALE UNIVERSITY, priority 2012, published 2019)
